According to ChEMBL document CHEMBL1201862, “PubChem BioAssay data set” (2004):
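Values below derive from 48-hour exposures of cells grown in 96-well plates, with endpoints linearly interpolated between the two concentrations bracketing the appropriate inhibition level. GI50 marks 50% less growth.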 The source made the active and inactive calls. Cut-off read from the data, not from the text of the source: active = GI50 up to about 1.1 µM and inactive = higher.

Columns and labels:
Assay in all cases: DTP human tumour cell line panel, 48 h
SK-MEL-2 = system: SK-MEL-2
LOX IMVI = system: LOX IMVI
SNB-19 = system: SNB-19
OVCAR-8 = system: OVCAR-8
NCI-H460 = system: NCI-H460
Hs-578T = system: Hs-578T
M14 = system: M14
U-251 = system: U-251
PC-3 = system: PC-3
HOP-62 = system: HOP-62
DU-145 = system: DU-145
BT-549 = system: BT-549
HOP-92 = system: HOP-92
SW-620 = system: SW-620
HCC 2998 = system: HCC 2998
NCI/ADR-RES = system: NCI/ADR-RES
MCF7 = system: MCF7
IGROV-1 = system: IGROV-1
OVCAR-3 = system: OVCAR-3
SF-295 = system: SF-295

Measured: GI50

C[C@]12CC(c3ccccc3O1)C(C(=O)Nc1nc(C34CC5CC(CC(C5)C3)C4)cs1)C(=O)N2 (some centres undefined)
inactive: SK-MEL-2 > 100 µM | LOX IMVI > 100 µM | SNB-19 > 100 µM | OVCAR-8 > 100 µM | NCI-H460 > 100 µM | Hs-578T > 100 µM | M14 > 100 µM | U-251 > 100 µM | PC-3 > 100 µM | HOP-62 > 100 µM | DU-145 > 100 µM | BT-549 > 100 µM | HOP-92 > 100 µM | SW-620 > 100 µM | HCC 2998 > 100 µM | NCI/ADR-RES > 100 µM | MCF7 > 100 µM | IGROV-1 75 µM | OVCAR-3 > 100 µM

Cc1ccc(S(=O)(=O)NNC(=O)c2cc(C)c(C)cc2N)cc1
inactive: LOX IMVI > 100 µM | SNB-19 > 100 µM | OVCAR-8 60.4 µM | NCI-H460 > 100 µM | Hs-578T 84.1 µM | M14 > 10 µM | U-251 > 100 µM | PC-3 > 100 µM | HOP-62 > 100 µM | DU-145 > 100 µM | BT-549 > 100 µM | HOP-92 > 100 µM | SF-295 > 100 µM | SW-620 > 100 µM | HCC 2998 > 100 µM | NCI/ADR-RES > 100 µM | MCF7 > 100 µM | IGROV-1 > 100 µM | OVCAR-3 94.2 µM

Cc1cc(S(=O)(=O)Nc2nc3ccccc3n2-c2ccccc2)c(S)cc1Cl
inactive: SK-MEL-2 > 100 µM | LOX IMVI > 100 µM | SNB-19 82.2 µM | OVCAR-8 > 100 µM | NCI-H460 56.5 µM | Hs-578T > 100 µM | M14 > 100 µM | U-251 > 100 µM | PC-3 > 100 µM | DU-145 > 100 µM | BT-549 > 100 µM | HOP-92 > 100 µM | SF-295 44.4 µM | SW-620 > 100 µM | HCC 2998 > 100 µM | NCI/ADR-RES > 100 µM | MCF7 > 100 µM | IGROV-1 > 100 µM | OVCAR-3 > 100 µM

C=C1C(=O)O[C@@H]2C[C@@]3(C)CC(=O)C=C(C)[C@@H]3C[C@H]12
inactive: SK-MEL-2 12.9 µM | LOX IMVI 13.9 µM | SNB-19 17.3 µM | OVCAR-8 15 µM | Hs-578T 27.2 µM | M14 13.5 µM | U-251 15.5 µM | PC-3 18.2 µM | HOP-62 18 µM | DU-145 4.29 µM | BT-549 10.8 µM | HOP-92 16.3 µM | SF-295 33.1 µM | SW-620 3.33 µM | HCC 2998 14.2 µM | NCI/ADR-RES 11.3 µM | MCF7 3.22 µM | IGROV-1 13.3 µM | OVCAR-3 6.15 µM

CCOc1ccc(/C=N/[N+](C)(C)C)cc1OCC
inactive: LOX IMVI > 10 µM | SNB-19 > 10 µM | OVCAR-8 > 10 µM | Hs-578T > 10 µM | M14 > 10 µM | U-251 > 10 µM | PC-3 > 10 µM | HOP-62 > 10 µM | DU-145 > 10 µM | BT-549 > 10 µM | HOP-92 > 10 µM | SF-295 > 10 µM | SW-620 > 10 µM | HCC 2998 > 10 µM | NCI/ADR-RES > 10 µM | MCF7 > 10 µM | IGROV-1 > 10 µM | OVCAR-3 > 10 µM

N=C(N)N/N=C/c1c(-c2ccccc2[N+](=O)[O-])nc2sccn12
inactive: SK-MEL-2 15.1 µM | LOX IMVI 19.9 µM | SNB-19 23.8 µM | OVCAR-8 32.2 µM | NCI-H460 19.1 µM | Hs-578T 29.1 µM | M14 16.7 µM | U-251 15.8 µM | PC-3 24.3 µM | HOP-62 25.7 µM | DU-145 48.2 µM | BT-549 30.7 µM | HOP-92 27.1 µM | SF-295 22 µM | SW-620 18.4 µM | NCI/ADR-RES > 100 µM | MCF7 19.1 µM | IGROV-1 37.6 µM | OVCAR-3 24.9 µM

CN(C)CCCNC(=O)c1c(O)c2ccccc2[nH]c1=O
inactive: SK-MEL-2 > 100 µM | LOX IMVI > 100 µM | OVCAR-8 > 100 µM | NCI-H460 > 100 µM | Hs-578T > 100 µM | PC-3 > 100 µM | HOP-62 > 100 µM | DU-145 > 100 µM | BT-549 > 100 µM | HOP-92 38.4 µM | SF-295 22.9 µM | SW-620 > 100 µM | HCC 2998 > 100 µM | NCI/ADR-RES 88.5 µM | MCF7 > 100 µM | IGROV-1 42 µM | OVCAR-3 > 100 µM

COc1ccc(-c2nnc3n(C)c4ccccc4n3c2=O)cc1
inactive: SK-MEL-2 > 100 µM | LOX IMVI > 100 µM | SNB-19 91.8 µM | OVCAR-8 56.1 µM | NCI-H460 38.3 µM | Hs-578T 33 µM | M14 > 100 µM | U-251 27.7 µM | PC-3 > 100 µM | HOP-62 14.5 µM | DU-145 > 100 µM | BT-549 72.4 µM | HOP-92 > 100 µM | SF-295 29.7 µM | SW-620 > 100 µM | HCC 2998 > 100 µM | NCI/ADR-RES > 100 µM | MCF7 > 100 µM | IGROV-1 51.5 µM
